In patent publication US20250197399A1, “COMPOUNDS, COMPOSITIONS, AND METHODS” (Tenvie Therapeutics, Inc., priority 2022, published 2025):
Where two headings read alike, the source gives them in different places.

System: NLRP3
Experiment: IL-1β secretion assay in PMA-differentiated, LPS/nigericin-stimulated THP-1 cells (ELISA)
Format: cell-based
Conditions: 25 ng/mL LPS then nigericin, IL-1β in supernatant
Description: Compounds as provided herein were tested in the following assay. Cell culture medium employed contained RPMI 1640 medium (89%), FBS (10%), Pen/Strep (1%), and 2-mercaptoethanol (0.05 mM). Freezing medium was made up of 90% FBS and 10% DMSO. THP-1 cells were removed from the liquid nitrogen and placed into a 37° C. water bath to thaw, until signs of ice dissipated. The cells were then added to 9 mL of warm cell culture medium and centrifuged for 5 minutes at 1000 rpm. The supernatant was discarded, and the cells were resuspended in new cell culture medium. THP-1 cells were then split and cultured in the cell culture medium, being passaged every 2-3 days with the cell density will be maintained between 5×10^5 and 1.5×10^6 viable cells/mL.
PMA was dissolved in DMSO to make a stock solution at 5 mg/ml and stored in 10 μl aliquots at −20° C. for single use. PMA is added to normal growth medium. LPS was diluted with 1 mL of water solution to provide a 1 mg/mL stock solution and stored in 15 μL aliquots at −20° C. for single use. Nigericin is diluted in ice cold 100% ethanol to 5 mg/ml (6.7 mM) and stored in 75 μL aliquots at −20° C. for single use. Serum-free media contains RPMI 1640 medium (99%), Pen/Strep (1%), and 2-mercaptoethanol (0.05 mM). The two control conditions used to qualify and normalize test compound dose-response curves were as follows: High Control=25 ng/mL LPS, […], 0.5% DMSO, Low Control=25 ng/mL, LPS, 0.5% DMSO.
THP-1 cells were diluted to provide a suspension at a concentration of 1.0×10^6 cells/mL with the total volume of suspension required to enable the desired number of assay plates. The growth media was supplemented with PMA (5 ng/mL final concentration) and the cells were incubated at 37° C. under a humidified atmosphere of 5% CO2 for 40 h.
All media was carefully aspirated from each culture flask. The cells were washed carefully with 1×DPBS. The cells were then briefly digested with trypsin LE for 5 minutes at 23° C. and immediately resuspended in cell growth media. After resuspension, the cells were centrifuged at 1000 rpm for 3 minutes and the supernatant was discarded. The cells were resuspended in DPBS and once again centrifuged at 1000 rpm for 5 minutes. The supernatant was discarded and the cell pellet was resuspended in serum-free media supplemented with LPS (25 ng/mL final concentration) to enable the distribution of 30K THP-1 cells within 45 μL of media into each well of 384-well PDL-coated plates. The 384-well plates were then incubated at 37° C. under a humidified atmosphere of 5% CO2 for 2 h. Following this period, test compounds were dispensed by Tecan across the desired concentration range with all wells normalized to a final 0.5% DMSO concentration. The plates were then then incubated at 37° C. under a humidified atmosphere of 5% CO2 for 1 h. Following this period, 5 μL of the 5 mg/mL nigericin stock solution was added to each of the appropriate wells and plates were centrifuged at 1000 rpm for 30 seconds. The plates were the immediately reintroduced to the incubator at 37° C. under a humidified atmosphere of 5% CO2 for 2 h. After this time, 35 μL/well of supernatant was collected and transferred into v-bottom plate and centrifuged at 1000 rpm for 1 minute. These supernatant aliquots were analyzed using an IL-Iβ detection kit as described below. If needed, the test samples could be snap frozen and stored at −80° C. until analyzed.
To prepare each ELISA plate, capture antibody (mAb Mt175) was diluted with PBS to a final concentration of […] and then 20 μL of this solution was added to each well of the ELISA plate. Each plate was allowed to incubate overnight at 4° C. The next day, the capture antibody solution was removed and discarded. Each ELISA plate was washed 4 times with PBST followed by the addition of 25 µL/well of blocking buffer (Licor-927-40010) supplemented with 0.1% Tween 20. Each ELISA plate was then allowed to incubate for 1 hour at 23° C. […]

[1] = THP-1 cells, read-out: Activity
[2] = THP-1 cells, read-out: Activity (IC50 class)
[3] = Homo sapiens, THP-1, THP-1 cells, read-out: Activity
[4] = Homo sapiens, THP-1, THP-1 cells, read-out: Activity (IC50 class)

SMILES | IC50 [1] | IC50 [2] | IC50 [3] | IC50 [4]
C[C@]1(O)C[C@@H](NC(=O)CN2CC3(CC3(F)F)c3cc(Br)ccc3C2=O)C1 (single isomer, unassigned) [Example 20, N-(3-cis-hydroxy-3-methylcyclobutyl)-2-[6-bromo-1′,1′-difluoro-1-oxospiro[3H-isoquinoline-4,2′-cyclopropane]-2-yl]acetamide] | 12900 nM | > 10000 nM | – | –
C[C@]1(O)C[C@@H](NC(=O)CN2CC(C(F)(F)F)c3cc(I)ccc3C2=O)C1 (single isomer, unassigned) [Example 11, N-(3-cis-hydroxy-3-methylcyclobutyl)-2-(6-iodo-1-oxo-4-(trifluoromethyl)-3,4-dihydroisoquinolin-2(1H)-yl)acetamide] | 57 nM | < 1000 nM | – | –
Cc1cnc(NC(=O)CN2CC3(CC3(F)F)c3cc(Br)ccc3C2=O)nc1 (single isomer, unassigned) [Example 19, N-(5-methylpyrimidin-2-yl)-2-[6-bromo-1′,1′-difluoro-1-oxospiro[3H-isoquinoline-4,2′-cyclopropane]-2-yl]acetamide] | 65 nM | < 1000 nM | – | –
N#Cc1cnc(NC(=O)CN2C[C@]3(C[C@H]3F)c3cc(C4(F)CC4)ccc3C2=O)nc1 [Example 3, 2-[(2′R,4S)-2′-fluoro-6-(1-fluorocyclopropyl)-1-oxospiro[3H-isoquinoline-4,1′-cyclopropane]-2-yl]-N-(5-cyanopyrimidin-2-yl)acetamide] | – | – | 17 nM | < 1000 nM
Cc1cnc(NC(=O)CN2C[C@]3(C[C@H]3F)c3c(ccc(Cl)c3F)C2=O)nc1 (single isomer, unassigned) [Example 44, 2-[(2′s,4r)-6-chloro-2′,5-difluoro-1-oxospiro[3H-isoquinoline-4,1′-cyclopropane]-2-yl]-N-(5-methylpyrimidin-2-yl)acetamide] | – | – | 113 nM | < 1000 nM
C[C@]1(O)C[C@@H](NC(=O)CN2CC(C(F)(F)F)c3cc(I)ccc3C2=O)C1 (single isomer, unassigned) [Example 10, N-(3-cis-hydroxy-3-methylcyclobutyl)-2-(6-iodo-1-oxo-4-(trifluoromethyl)-3,4-dihydroisoquinolin-2(1H)-yl)acetamide] | 4080 nM | – | – | 1000 to 10000 nM
O=C(CN1CC2(CC2(F)F)c2cc(C(F)(F)F)ccc2C1=O)Nc1ncc(F)cn1 (single isomer, unassigned) [Example 40, N-(5-fluoropyrimidin-2-yl)-2-[1′,1′-difluoro-6-(trifluoromethyl)-1-oxospiro[3H-isoquinoline-4,2′-cyclopropane]-2-yl]acetamide] | 9370 nM | – | – | 1000 to 10000 nM
O=C(CN1CC2(CC2(F)F)c2cc(C(F)(F)F)ccc2C1=O)Nc1ncc(Cl)cn1 (single isomer, unassigned) [Example 39, N-(5-chloropyrimidin-2-yl)-2-[1′,1′-difluoro-6-(trifluoromethyl)-1-oxospiro[3H-isoquinoline-4,2′-cyclopropane]-2-yl]acetamide] | 6960 nM | 1000 to 10000 nM | – | –
O=C(CN1CC2(CC2(F)F)c2c(ccc(Br)c2F)C1=O)Nc1nc2ccccn2n1 (single isomer, unassigned) [Example 31, N-([1,2,4]triazolo[1,5-a]pyridin-2-yl)-2-[6-bromo-1′,1′,5-trifluoro-1-oxospiro[3H-isoquinoline-4,2′-cyclopropane]-2-yl]acetamide] | 33 nM | < 1000 nM | – | –
O=C(CN1CC(C(F)(F)F)c2cc(I)ccc2C1=O)Nc1ncc(Cl)cn1 (centres unmarked) [Example 7, N-(5-chloropyrimidin-2-yl)-2-(6-iodo-1-oxo-4-(trifluoromethyl)-3,4-dihydroisoquinolin-2(1H)-yl)acetamide] | – | – | 17 nM | < 1000 nM

Next, values leading:

IC50 [1] | IC50 [2] | IC50 [3] | IC50 [4] | SMILES
22400 nM | > 10000 nM | – | – | C[C@]1(O)C[C@@H](NC(=O)CN2CC3(CC3(F)F)c3cc(C(F)(F)F)ccc3C2=O)C1 (single isomer, unassigned) [Example 52, 2-[1′,1′-difluoro-1-oxo-6-(trifluoromethyl)spiro[3H-isoquinoline-4,2′-cyclopropane]-2-yl]-N-(3-cis-hydroxy-3-methylcyclobutyl)acetamide]
– | – | 279 nM | < 1000 nM | O=C(CN1CC2(CC2)c2cc(Br)ccc2C1=O)Nc1ncc2c(C(F)(F)F)n[nH]c2n1 [Example 58, 2-(6-bromo-1-oxospiro[3H-isoquinoline-4,1′-cyclopropane]-2-yl)-N-[3-(trifluoromethyl)-1H-pyrazolo[3,4-d]pyrimidin-6-yl]acetamide]
– | – | 34 nM | < 1000 nM | O=C(CN1CC2(CC2(F)F)c2cc(Br)ccc2C1=O)Nc1ncc2cn[nH]c2n1 (centres unmarked) [Example 63, 2-(6-bromo-1′,1′-difluoro-1-oxospiro[3H-isoquinoline-4,2′-cyclopropane]-2-yl)-N-(1H-pyrazolo[3,4-d]pyrimidin-6-yl)acetamide]
184 nM | < 1000 nM | – | – | O=C(CN1C[C@]2(C[C@H]2F)c2cc(C(F)(F)F)ccc2C1=O)Nc1nc2ccccn2n1 (single isomer, unassigned) [Example 50, 2-[(2′s,4r)-2′-fluoro-1-oxo-6-(trifluoromethyl)spiro[3H-isoquinoline-4,1′-cyclopropane]-2-yl]-N-([1,2,4]triazolo[1,5-a]pyridin-2-yl)acetamide]
504 nM | < 1000 nM | – | – | O=C(CN1CC2(CC2(F)F)c2cc(Br)ccc2C1=O)Nc1ncc2cn[nH]c2n1 (single isomer, unassigned) [Example 65, 2-(6-bromo-1′,1′-difluoro-1-oxospiro[3H-isoquinoline-4,2′-cyclopropane]-2-yl)-N-(1H-pyrazolo[3,4-d]pyrimidin-6-yl)acetamide]
11100 nM | > 10000 nM | – | – | O=C(CN1CC2(CC2)c2cc(Br)ccc2C1=O)NC1CC(O)(C2CC2)C1 (single isomer, unassigned) [Example 57, 2-(6-bromo-1-oxospiro[3H-isoquinoline-4,1′-cyclopropane]-2-yl)-N-(3-cyclopropyl-3-hydroxycyclobutyl)acetamide]
– | – | 48 nM | < 1000 nM | O=C(CN1C[C@]2(C[C@H]2F)c2c(ccc(Cl)c2F)C1=O)Nc1ncc2cn[nH]c2n1 (single isomer, unassigned) [Example 45, 2-[(2′s,4r)-6-chloro-2′,5-difluoro-1-oxospiro[3H-isoquinoline-4,1′-cyclopropane]-2-yl]-N-(1H-pyrazolo[3,4-d]pyrimidin-6-yl)acetamide]
– | – | 38 nM | < 1000 nM | O=C(CN1CC2(CC2)c2c(ccc(Br)c2F)C1=O)Nc1ncc2cn[nH]c2n1 [Example 46, 2-(6-bromo-5-fluoro-1-oxospiro[3H-isoquinoline-4,1′-cyclopropane]-2-yl)-N-(1H-pyrazolo[3,4-d]pyrimidin-6-yl)acetamide]
– | – | 80 nM | < 1000 nM | O=C(CN1CC2(CC2)c2c(ccc(Br)c2F)C1=O)Nc1ncc2nc[nH]c2n1 [Example 62, 2-(6-bromo-5-fluoro-1-oxospiro[3H-isoquinoline-4,1′-cyclopropane]-2-yl)-N-(9H-purin-2-yl)acetamide]
